Laboratory results from article PMC3750255, “Inhibition of Mycoplasma pneumoniae growth by FDA-approved anticancer and antiviral nucleoside and nucleobase analogs” (BMC Microbiology, 2013).
Values after ≈ are worked out from the molar mass of the structure shown. Like-named read-outs stand apart in the source and are kept apart here.

Columns and labels:
[1] = tested on: M. pneumoniae thyA mutant (lacking TS activity); assay: microbe, parasite or virus in culture; format: cell-based, Mycoplasma pneumoniae; conditions: Mycoplasmoides pneumoniae, read-out: thyA mutant MIC
Method: (§1) A series dilution of each compound in Mycoplasma growth medium was added to Mpn cultures in 96-well plates. The plates were sealed and incubated at 37°C. Mpn growth was monitored by using growth index value e.g. the ratio of absorbance at 450 nm and 560 nm of the culture medium. Thirty nucleoside and nucleobase analogs and a nucleoside transporter inhibitor were included, and two Mpn strains, wild type and a thyA mutant (lacking TS activity), were used.
(§2) Nucleoside and nucleobase analogs were dissolved in dimethyl sulfoxide (DMSO) as stock solutions and diluted with Mpn culture medium to the desired concentration immediately prior to use.
(§3) Mpn laboratory strain M129 wild type and a thyA mutant strain [31] were used in this study. Mpn was cultured at 37°C in a CO2 incubator using 75 cm^2 tissue culture flasks containing 50 ml Hayflick’s medium, and harvested at day 4 when the medium color change was observed. The cells were harvested and the pellet was resuspended in 6 ml fresh medium and the cfu/ml was determined by serial dilution (10-fold) and plating on broth agar plate. Colonies was counted and cfu/ml was calculated.
(§4) Inhibition studies were performed in 96-well plates containing 200 μl Mpn culture (approximately 10^6 cfu ml^-1) in Hayflick’s medium and 200 μl each compound in series dilutions (2-fold) with the growth medium, with three to four replicas. The plates were sealed with clear adhesive sheets and incubated at 37°C incubator. Absorbance ratio at 450 nm and 560 nm was used as Mpn growth index, which was measured daily, and by visual detection for at least 8 days, as previously described. […] The MICs (minimal inhibitory concentration required to inhibit Mpn growth to 90%) were determined as the lowest concentration at which the growth index was ≈ 10% of the control values (at the time when the control culture medium color turned yellow), essentially as described.

[2] = tested on: M. pneumoniae wild type (laboratory strain M129); assay: Mpn growth inhibition in 96-well plates (growth index A450/A560), wild type strain; format: cell-based, Mycoplasma pneumoniae; conditions: for MIC: Mycoplasmoides pneumoniae
Method: as §1, §2, §3, §4

Mpn wild type cells = assay: Uptake and metabolism of tritium labelled natural nucleoside and nucleobases in the presence of analogs; format: cell-based, Mycoplasma pneumoniae; conditions: 10 μM analog, 70 hours
Method: The cells were harvested and analyzed essentially as described. Analogs used were dipyridamole, 6-thioguanine (6-TG), trifluorothymidine (TFT), gemcitabine (dFdC) and 5-fluorodeoxyuridine (5FdU). Total uptake is the percent of radioactivity recovered in the cells divided by total radioactivity added to the growth medium. Percent of acid insoluble (radioactivity found in DNA and RNA) was also calculated. These experiments were done more than three times and data are given as mean ± SD.

Mpn HPRT [3] = biological target: T1, Mpn HPRT (Mycoplasmoides pneumoniae, UniProt P75119); conditions: as substrate of Mpn HPRT
T1 sequence (P75119 1-175): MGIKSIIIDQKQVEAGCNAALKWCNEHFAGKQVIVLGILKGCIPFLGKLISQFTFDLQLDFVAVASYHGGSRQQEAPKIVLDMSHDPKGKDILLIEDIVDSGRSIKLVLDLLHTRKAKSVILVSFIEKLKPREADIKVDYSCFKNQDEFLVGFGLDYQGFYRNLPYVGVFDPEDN
Method: Data are from at least three independent measurements and are presented as mean ± standard deviation (SD).
(§5) The reaction was initiated by addition of the enzyme, and at 0, 5, 10, and 15 min intervals, 10 μl reaction mixture was withdrawn and spotted onto the DE81 filter paper and dried. The unreacted substrate was washed and the products were eluted and counted in a liquid scintillation counter. With [^3H]-Gua as substrate the reaction (in a total of 25 μl) was initiated by addition of the enzyme (10 μl), incubated at 37°C for 2 min, stopped by addition of 1 M HCl (10 μl), and placed immediately on ice. After neutralization, 15 μl of the mixture was spotted onto the DE81-filter paper. The filters were then washed, and the products were eluted and counted by liquid scintillation.

Mpn HPRT [4] = biological target: T1, Mpn HPRT; assay: biochemical; conditions: substrate hypoxanthine, 10 μM [3H]-hypoxanthine
Method: as §5

human HPRT = biological target: T2, human HPRT (Homo sapiens, UniProt P00492); assay: HPRT inhibition, DE-81 filter paper assay; format: biochemical
T2 construct: made in house
T2 sequence (P00492 1-218): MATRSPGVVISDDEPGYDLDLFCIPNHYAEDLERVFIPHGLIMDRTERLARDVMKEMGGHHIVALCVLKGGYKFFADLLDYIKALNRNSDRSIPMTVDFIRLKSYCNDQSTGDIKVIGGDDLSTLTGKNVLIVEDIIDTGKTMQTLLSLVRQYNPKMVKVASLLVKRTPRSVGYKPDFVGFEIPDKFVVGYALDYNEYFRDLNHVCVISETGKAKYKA
Method: as §5

[5] = 37°C, radioactivity in cells / total added
[6] = acid insoluble fraction / total in cells

Row | SMILES | MIC [1] | MIC ([2]; read-out: Wild type MIC) | also measured
1 | Nc1nc(F)nc2c1ncn2[C@@H]1O[C@H](COP(=O)(O)O)[C@@H](O)[C@@H]1O [Fludarabine phosphate] | > 500 µg/mL | > 500 µg/mL | 
2 | Nc1nc(O)c2ncn(COC(CO)CO)c2n1 [Gancyclovir] | > 500 µg/mL | 7.8 µg/mL (≈ 30.6 µM) | Inhibition of wild type Mpn growth (in words) [2]: inhibited wild type Mpn
3 | Nc1ccn([C@@H]2O[C@H](CO)[C@@H](O)C2(F)F)c(=O)n1 [Gemcitabine (dFdC), Gemcitabine] | 2.4 µg/mL (≈ 9.12 µM) | 2.4 µg/mL (≈ 9.12 µM) | [3H]-Ade Total uptake (Mpn wild type cells; [5]): 0.41±0.08%; [3H]-Gua Total uptake (Mpn wild type cells; [5]): 0.10±0.02%; [3H]-Hx Total uptake (Mpn wild type cells; [5]): 0.009±0.0002%; [3H]-Ura Total uptake (Mpn wild type cells; [5]): 0.12±0.001%; [3H]-dT Total uptake (Mpn wild type cells; [5]): 5.2±0.4%; [3H]-Ade Incorporation (Mpn wild type cells; [6]): 39±8%; [3H]-Gua Incorporation (Mpn wild type cells; [6]): 90±6%; [3H]-Hx Incorporation (Mpn wild type cells; [6]): 67±7%; [3H]-Ura Incorporation (Mpn wild type cells; [6]): 26±6%; [3H]-dT Incorporation (Mpn wild type cells; [6]): 96.7±1.1%; MIC ([2]; read-out: MIC (Mpn growth), strain not specified, 90% growth inhibition): ~2.5 µg/mL (≈ 9.5 µM); MIC (Mpn growth) ([2]; strain not specified, 90% growth inhibition): approximately 2 μg ml^-1
4 | Nc1nc2nc[nH]c2c(=O)[nH]1 [Gua, guanine] |  |  | Hill coefficient (Mpn HPRT [3]): 3.5; Vmax (Mpn HPRT [3]): 2.7 ± 0.1 µmol/min/mg; S0.5 (Mpn HPRT [3]; Hill equation): 107.6 ± 6.2 µM
5 | Nc1ccn([C@@H]2CS[C@H](CO)O2)c(=O)n1 [Lamivudine] | > 500 µg/mL | > 500 µg/mL | 
6 | COc1c(C)c2c(c(O)c1C/C=C(\C)CCC(=O)OCCN1CCOCC1)C(=O)OC2 [Mycophenolate mofetil] | 250 µg/mL (≈ 577 µM) | 250 µg/mL (≈ 577 µM) | 
7 | CC(=O)CCCCn1c(=O)c2c(ncn2C)n(C)c1=O [Pentoxifylline] | > 500 µg/mL | 62.5 µg/mL (≈ 225 µM) | Inhibition of wild type Mpn growth (in words) [2]: inhibited wild type Mpn
8 | CCc1nc(N)nc(N)c1-c1ccc(Cl)cc1 [Pyrimethamine] | > 500 µg/mL | > 500 µg/mL | 
9 | NC(=O)c1ncn([C@@H]2O[C@H](CO)[C@@H](O)[C@H]2O)n1 [Ribavirin] | > 500 µg/mL | 62.5 µg/mL (≈ 256 µM) | Inhibition of wild type Mpn growth (in words) [2]: inhibited wild type Mpn
10 | Cc1cn([C@H]2C=C[C@@H](CO)O2)c(=O)[nH]c1=O [Stavudine] | 17.8 µg/mL (≈ 79.4 µM) | 7.8 µg/mL (≈ 34.8 µM) | 
11 | Cn1c(=O)c2[nH]cnc2n(C)c1=O [Theophylline] | > 500 µg/mL | > 500 µg/mL | IC50 (Mpn HPRT [4]): > 4000 µM; IC50 (human HPRT): 1580 ± 134 µM
12 | CC(C)[C@H](N)C(=O)OCCOCn1cnc2c(=O)[nH]c(N)nc21 [Valacyclovir] | > 500 µg/mL | > 500 µg/mL | Inhibition of Mpn growth (in words) ([2]; strain not specified): did not inhibit Mpn growth
13 | Nc1ccn([C@H]2CC[C@@H](CO)O2)c(=O)n1 [Zalcitabine] | > 500 µg/mL | > 500 µg/mL | 
14 | Cc1cn([C@H]2C[C@H](N=[N+]=[N-])[C@@H](CO)O2)c(=O)[nH]c1=O [Zidovudine] | 7.8 µg/mL (≈ 29.2 µM) | 7.8 µg/mL (≈ 29.2 µM) | 
15 | CN(C)[C@@H]1C(O)=C(C(N)=O)C(=O)[C@@]2(O)C(O)=C3C(=O)c4c(O)cccc4[C@@](C)(O)[C@H]3C[C@@H]12 [tetracycline] |  |  | Mpn growth in control cultures (in words) ([2]; 2 μg/ml tetracycline, up to 8 days): no growth; MIC ([2]; strain not specified, 90% growth inhibition, read-out: MIC (Mpn growth)): 0.1 µg/mL (≈ 0.225 µM)
